# In ChEMBL document CHEMBL1201862, “PubChem BioAssay data set” (2004):
# The source made the active and inactive calls.
# Experiments:
# [1] = target: Dual specificity protein phosphatase 3 (Homo sapiens, UniProt P51452); assay: SAR VHR1 Fluorescent Assay for In Vitro dose response studies Set 3. [Related pubchem assays (depositor defined):AID1654, AID1661, AID1878]; format: functional
# [2] = Luminescence Cell-Based/Microorganism Confirmation at Dose of Inhibitors of Trypanosoma cruzi Infection. [Related pubchem assays: 1885, 1968 ]; format: functional
# [3] = inhibitors of Trypanosoma cruzi host-cell infection, confirmation, beta-gal luminescence, NIH3T3 host cells (AID 2630); format: functional, cell-based; conditions: Mus musculus
# [4] = Luminescence Cell-Based Secondary HTS screen to identify cytotoxic compounds of NIH3T3 cells. [Related pubchem assays: 1885, 1968 ]; format: functional
# Jurkat = assay: antigen receptor-induced NF-kB inhibitors, dose response, Jurkat, luciferase reporter, luminescence, B- and T-cell (AID 489004); format: functional, cell-based; conditions: Homo sapiens;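 further: NF-kB luciferase reporter Jurkat cells stimulated with PMA plus ionomycin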
# [5] = cytotoxicity in HEK-293T NF-kB-Luc cells, dose response, cytotoxicity control for B/T-cell NF-kB inhibitor project, cell-based, uHTS hits (AID 489019); format: functional;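 further: IC50 reflects cytotoxicity as loss of cell viability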
# [6] = target: Dual specificity protein phosphatase 6 (Rattus norvegicus, UniProt Q64346); format: functional;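 further: confirmatory in vitro dose-response testing of MKP-3 inhibition; recombinant His-tagged MKP-3 made in E. coli BL21 with OMFP substrate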
# [7] = target: T1, Tyrosine-protein phosphatase non-receptor type 7 (Homo sapiens, UniProt P35236); assay: redox-dependent HePTP inhibition, mechanism study, biochemical, fluorescence (AID 2068); format: functional
# T1 sequence (P35236 whole entry): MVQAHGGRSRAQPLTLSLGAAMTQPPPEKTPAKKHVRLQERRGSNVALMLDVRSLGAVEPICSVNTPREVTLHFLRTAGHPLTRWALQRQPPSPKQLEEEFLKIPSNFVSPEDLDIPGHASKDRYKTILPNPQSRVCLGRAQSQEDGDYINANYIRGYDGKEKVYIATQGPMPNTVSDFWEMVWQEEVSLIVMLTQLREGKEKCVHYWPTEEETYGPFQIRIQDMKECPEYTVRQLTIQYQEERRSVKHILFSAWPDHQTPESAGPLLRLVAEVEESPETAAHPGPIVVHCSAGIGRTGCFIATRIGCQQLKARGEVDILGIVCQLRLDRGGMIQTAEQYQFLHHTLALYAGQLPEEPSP
# [8] = target: SWI/SNF-related matrix-associated actin-dependent regulator of chromatin subfamily A member 2 (Homo sapiens, UniProt P51531); assay: Luminescence-based cell-based high throughput dose response assay to identify activators of the function of SWI/SNF related, matrix associated, actin dependent regulator of chromatin, subfamily a, member 2 (SMARCA2, BRM).; format: functional
# [9] = ARNT/TACC3 interaction disruptors, potency, confirmation, biochemical, AlphaScreen, cherry-picked samples (AID 651703); format: functional, Homo sapiens;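 further: His-tagged ARNT PAS-B domain paired with GST-TACC3 E629A dimer coactivator fragment; potency of inhibitors that break up the complex and lower AlphaScreen signal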
# [10] = target: T2, Rac GTPase-activating protein 1 (Homo sapiens, UniProt Q9H0H5); assay: MgcRacGAP GTPase-activating activity inhibitors, confirmation, biochemical, ADP Hunter fluorescence, primary and confirmatory (AID 624330); format: functional
# T2 sequence (Q9H0H5 whole entry): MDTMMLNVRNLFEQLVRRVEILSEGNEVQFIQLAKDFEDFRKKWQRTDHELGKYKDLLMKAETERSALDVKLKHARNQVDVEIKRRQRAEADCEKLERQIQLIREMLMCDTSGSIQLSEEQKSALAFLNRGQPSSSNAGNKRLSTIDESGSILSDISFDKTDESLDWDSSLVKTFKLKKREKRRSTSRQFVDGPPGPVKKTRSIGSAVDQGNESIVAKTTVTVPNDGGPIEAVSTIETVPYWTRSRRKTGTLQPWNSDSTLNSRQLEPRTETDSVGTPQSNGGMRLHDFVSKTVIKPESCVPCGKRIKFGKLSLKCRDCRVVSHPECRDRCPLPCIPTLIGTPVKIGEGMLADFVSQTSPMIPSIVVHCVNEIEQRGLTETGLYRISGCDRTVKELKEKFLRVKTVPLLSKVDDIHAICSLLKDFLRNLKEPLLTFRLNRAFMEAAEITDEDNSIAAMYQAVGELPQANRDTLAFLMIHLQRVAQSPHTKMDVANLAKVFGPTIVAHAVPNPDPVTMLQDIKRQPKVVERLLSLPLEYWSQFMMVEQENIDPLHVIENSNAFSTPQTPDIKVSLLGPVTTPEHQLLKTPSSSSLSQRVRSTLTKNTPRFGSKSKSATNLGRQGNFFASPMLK
# [11] = Counterscreen for activators of the function of SWI/SNF related, matrix associated, actin dependent regulator of chromatin, subfamily a, member 2 (SMARCA2, BRM): Luminescence-based cell-based high throughput dose response assay to identify non-selective compounds using the VP16 reporter assay.; format: functional
# ORF 73 = ORF 73 (Human herpesvirus 8, UniProt O40947); assay: inhibitors of C-LANA binding to LBS DNA, dose response, biochemical, fluorescence polarization, cherry-picked samples (AID 504725); set-up: species or system Human gammaherpesvirus 8;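 further: fluorescence polarization of a labeled DNA duplex reporting LANA DNA binding; potency is for inhibitors that block LANA binding to the DNA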
# HEK293 [12] = assay: cells; conditions: Homo sapiens
# HeLa = assay: HeLa cell cytotoxicity, dose response, cytotoxicity control, 24 h, cherry-picked samples (AID 504726); format: functional, cell-based; conditions: Homo sapiens;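 further: potency for cytotoxicity as loss of luminescence signal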
# HEK293 [13] = assay: cells; conditions: Homo sapiens; remark: listed apart in the source
# Keap1/Nrf2 = Keap1/Nrf2 (Homo sapiens, UniProt Q14145); assay: Keap1-Nrf2 protein-protein interaction inhibitors, dose response, biochemical, fluorescence polarization, cherry-picked samples (AID 588683)
# [14] = HeLa cell cytotoxicity, dose response, cytotoxicity control for MgcRacGAP inhibitor project (AID 624300); format: functional
# HEK293 [15] = assay: NOD1 signaling inhibitors, primary screen, cell-based, luminescence, uHTS (AID 1578); format: functional; conditions: Homo sapiens
# [16] = insulin promoter down-regulators in MIN6 cells, imaging, high-content screening, mouse beta cells (AID 1628); format: functional
# [17] = control 3'UTR Renilla luciferase suppression, dose response, counter-screen for Shn3 inhibitor project, cell-based, Clone20-Shn3RL, cherry-picked (AID 624133); format: functional
# HEK293 [18] = assay: cells; format: functional, cell-based; conditions: Homo sapiens
# [19] = cytotoxicity toward NIH3T3 fibroblasts, dose response, counter-screen, cell-based, ATP luminescence, mouse fibroblasts (AID 2010); format: functional;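 further: cells exposed to compound for about 90 hours before reading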
# [20] = cytotoxicity in MIN6 insulinoma cells, dose response, cytotoxicity control, cell-based, mouse insulinoma (AID 2122); format: functional;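 further: confirmatory high-throughput counterscreen run to flag cytotoxic compounds; mouse MIN-6 beta cells carrying an insulin promoter eGFP reporter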
# HEK293 [21] = assay: cells; format: functional, cell-based; conditions: Homo sapiens; remark: listed apart in the source
# INS1 = assay: beta cell apoptosis inhibitors, cytokine rescue, dose response, luminescence, retest (AID 449756); format: functional, cell-based; conditions: Rattus norvegicus;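 further: cell death triggered by IL-1 beta plus TNF-alpha plus IFN-gamma mixture; protective hits raise ATP signal compared with cytokine alone wells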
# [22] = Shn3 3'UTR reporter inhibitors, dose response, cell-based, Clone20 osteoblasts, firefly luciferase, cherry-picked (AID 624132); format: functional;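 further: firefly luciferase luminescence from reporter carrying the Shn3 3'UTR in osteoblasts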
# HEK293 [23] = assay: NOD2 signaling inhibitors in MDP-stimulated cells, cell-based, uHTS, luminescence (AID 2001); format: functional; conditions: Homo sapiens
# [24] = inhibitors of intracellular T. cruzi replication, confirmation, NIH3T3 host cells, beta-gal luminescence (AID 2044); format: functional, cell-based;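 further: intracellular parasites grown in NIH/3T3 mouse fibroblasts as host cells; luminescent beta-galactosidase reporter signal from transgenic T. cruzi replicating inside host cells; inhibitors lower the luminescence signal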
# [25] = HepG2 cell cytotoxicity, dose response, cytotoxicity control for Shn3 inhibitor project, CellTiter-Glo, cherry-picked (AID 624134); format: functional, cell-based
# [26] = target: T3, Corticotropin-releasing factor receptor 2/Corticotropin-releasing factor-binding protein (Homo sapiens, UniProt P24387+Q13324); assay: activators of CRF receptor 2 with binding protein – uHTS hits, confirmation (AID 602473); format: functional; conditions: read-out: EC50_Mean
# T3 sequence (Q13324 whole entry): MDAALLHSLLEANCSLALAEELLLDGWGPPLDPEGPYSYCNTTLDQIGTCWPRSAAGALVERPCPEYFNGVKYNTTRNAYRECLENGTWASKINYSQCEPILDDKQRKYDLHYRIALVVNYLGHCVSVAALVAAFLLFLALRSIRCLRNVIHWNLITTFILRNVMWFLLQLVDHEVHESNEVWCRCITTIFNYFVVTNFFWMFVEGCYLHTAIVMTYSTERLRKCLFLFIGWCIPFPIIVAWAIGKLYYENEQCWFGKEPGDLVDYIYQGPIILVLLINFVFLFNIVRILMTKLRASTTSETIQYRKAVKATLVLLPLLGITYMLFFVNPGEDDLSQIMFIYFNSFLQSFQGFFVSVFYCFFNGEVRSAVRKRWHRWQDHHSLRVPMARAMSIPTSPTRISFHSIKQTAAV
# T3 sequence (P24387 whole entry): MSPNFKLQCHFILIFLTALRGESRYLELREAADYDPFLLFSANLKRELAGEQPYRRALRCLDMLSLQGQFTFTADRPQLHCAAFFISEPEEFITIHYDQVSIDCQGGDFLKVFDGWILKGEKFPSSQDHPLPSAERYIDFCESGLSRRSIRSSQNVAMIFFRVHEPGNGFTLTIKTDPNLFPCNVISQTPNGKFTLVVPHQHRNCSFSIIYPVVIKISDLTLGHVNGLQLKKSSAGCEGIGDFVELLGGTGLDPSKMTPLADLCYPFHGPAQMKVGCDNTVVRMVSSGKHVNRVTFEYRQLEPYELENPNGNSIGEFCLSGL
# Phospholipase A2 = Phospholipase A2 (Homo sapiens, UniProt P04054); assay: PLA2 enzyme inhibitors, dose response, counter-screen for ATG4B inhibitor project, biochemical, set 2 (AID 588586); format: functional
# [27] = target: T3, Corticotropin-releasing factor receptor 2/Corticotropin-releasing factor-binding protein; assay: Dose Response confirmation of uHTS hits for small molecule antagonists of the CRF-binding protein and CRF-R2 receptor complex.; format: functional; conditions: read-out: IC50_Mean
# Cytochrome P450 2D6 = Cytochrome P450 2D6 (Homo sapiens, UniProt P10635);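 further: CYP2D6 member of a cytochrome P450 panel assay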
# Cytochrome P450 3A4 = Cytochrome P450 3A4 (Homo sapiens, UniProt P08684);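 further: CYP3A4 tested as one member of a cytochrome P450 panel screen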
# Cysteine protease ATG4B = target: T4, Cysteine protease ATG4B (Homo sapiens, UniProt Q9Y4P1); assay: ATG4B protease inhibitors, dose response, biochemical, fluorescence, set 2 (AID 588584); format: functional
# T4 sequence (Q9Y4P1 whole entry): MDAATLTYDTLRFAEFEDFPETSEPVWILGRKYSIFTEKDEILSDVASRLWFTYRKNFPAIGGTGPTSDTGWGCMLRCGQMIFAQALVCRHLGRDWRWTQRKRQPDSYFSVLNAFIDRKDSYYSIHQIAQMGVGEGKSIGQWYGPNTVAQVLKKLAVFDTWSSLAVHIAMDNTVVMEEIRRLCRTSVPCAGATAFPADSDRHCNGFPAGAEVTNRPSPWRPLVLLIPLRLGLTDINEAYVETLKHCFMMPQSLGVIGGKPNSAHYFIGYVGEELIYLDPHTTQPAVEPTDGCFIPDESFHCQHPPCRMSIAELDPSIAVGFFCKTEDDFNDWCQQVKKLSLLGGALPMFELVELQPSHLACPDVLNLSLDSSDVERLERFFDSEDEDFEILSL
# Chain of SWI/SNF-related matrix-associated actin-dependent regulator of chromatin subfamily A member 2 (P51531 whole entry, the tested form may be a part): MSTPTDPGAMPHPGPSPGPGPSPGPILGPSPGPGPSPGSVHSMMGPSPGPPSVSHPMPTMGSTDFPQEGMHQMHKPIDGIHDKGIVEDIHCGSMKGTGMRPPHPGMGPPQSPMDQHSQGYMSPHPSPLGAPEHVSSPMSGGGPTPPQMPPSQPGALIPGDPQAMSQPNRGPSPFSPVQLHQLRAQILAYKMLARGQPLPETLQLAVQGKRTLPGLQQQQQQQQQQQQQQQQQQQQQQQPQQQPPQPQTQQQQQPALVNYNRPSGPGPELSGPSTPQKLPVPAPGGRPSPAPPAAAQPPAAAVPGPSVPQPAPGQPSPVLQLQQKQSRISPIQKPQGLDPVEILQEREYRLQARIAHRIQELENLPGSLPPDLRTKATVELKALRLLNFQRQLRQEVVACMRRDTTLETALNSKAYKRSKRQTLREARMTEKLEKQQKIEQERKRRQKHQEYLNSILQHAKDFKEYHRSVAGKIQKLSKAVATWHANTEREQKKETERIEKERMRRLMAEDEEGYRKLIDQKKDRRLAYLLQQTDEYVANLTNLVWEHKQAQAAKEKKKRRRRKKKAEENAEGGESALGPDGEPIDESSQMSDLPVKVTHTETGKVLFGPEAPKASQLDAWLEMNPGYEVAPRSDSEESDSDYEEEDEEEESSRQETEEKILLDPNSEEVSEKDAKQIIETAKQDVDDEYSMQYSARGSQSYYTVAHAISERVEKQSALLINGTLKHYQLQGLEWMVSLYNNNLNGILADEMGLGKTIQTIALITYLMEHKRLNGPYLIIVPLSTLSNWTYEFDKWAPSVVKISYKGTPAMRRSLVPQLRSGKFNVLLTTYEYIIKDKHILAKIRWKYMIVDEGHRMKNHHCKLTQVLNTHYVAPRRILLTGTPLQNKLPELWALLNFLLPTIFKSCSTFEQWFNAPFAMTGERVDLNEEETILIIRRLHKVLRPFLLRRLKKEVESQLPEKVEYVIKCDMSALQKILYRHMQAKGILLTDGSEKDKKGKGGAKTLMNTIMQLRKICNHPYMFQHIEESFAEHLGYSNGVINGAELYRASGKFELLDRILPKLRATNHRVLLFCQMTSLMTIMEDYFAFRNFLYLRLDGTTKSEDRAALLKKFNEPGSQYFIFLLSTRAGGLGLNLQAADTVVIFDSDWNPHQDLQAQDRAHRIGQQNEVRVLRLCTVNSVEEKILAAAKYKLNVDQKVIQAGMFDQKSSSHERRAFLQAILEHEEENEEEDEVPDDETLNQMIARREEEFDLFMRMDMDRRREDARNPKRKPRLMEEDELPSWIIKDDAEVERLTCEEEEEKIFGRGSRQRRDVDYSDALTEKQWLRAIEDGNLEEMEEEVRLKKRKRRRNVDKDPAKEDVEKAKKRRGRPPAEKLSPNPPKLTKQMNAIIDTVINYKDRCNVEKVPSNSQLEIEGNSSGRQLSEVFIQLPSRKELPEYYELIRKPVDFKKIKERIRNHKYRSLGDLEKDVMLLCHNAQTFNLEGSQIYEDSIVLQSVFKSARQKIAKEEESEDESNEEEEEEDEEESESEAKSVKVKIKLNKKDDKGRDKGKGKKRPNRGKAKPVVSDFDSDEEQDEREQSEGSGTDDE
# Chain of Dual specificity protein phosphatase 3 (P51452 whole entry): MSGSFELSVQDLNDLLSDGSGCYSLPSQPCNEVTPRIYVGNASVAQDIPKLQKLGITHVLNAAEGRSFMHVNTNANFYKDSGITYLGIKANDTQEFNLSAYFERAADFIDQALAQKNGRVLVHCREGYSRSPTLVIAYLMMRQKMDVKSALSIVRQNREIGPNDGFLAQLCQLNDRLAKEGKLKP
# Chain of ORF 73 (O40947 whole entry): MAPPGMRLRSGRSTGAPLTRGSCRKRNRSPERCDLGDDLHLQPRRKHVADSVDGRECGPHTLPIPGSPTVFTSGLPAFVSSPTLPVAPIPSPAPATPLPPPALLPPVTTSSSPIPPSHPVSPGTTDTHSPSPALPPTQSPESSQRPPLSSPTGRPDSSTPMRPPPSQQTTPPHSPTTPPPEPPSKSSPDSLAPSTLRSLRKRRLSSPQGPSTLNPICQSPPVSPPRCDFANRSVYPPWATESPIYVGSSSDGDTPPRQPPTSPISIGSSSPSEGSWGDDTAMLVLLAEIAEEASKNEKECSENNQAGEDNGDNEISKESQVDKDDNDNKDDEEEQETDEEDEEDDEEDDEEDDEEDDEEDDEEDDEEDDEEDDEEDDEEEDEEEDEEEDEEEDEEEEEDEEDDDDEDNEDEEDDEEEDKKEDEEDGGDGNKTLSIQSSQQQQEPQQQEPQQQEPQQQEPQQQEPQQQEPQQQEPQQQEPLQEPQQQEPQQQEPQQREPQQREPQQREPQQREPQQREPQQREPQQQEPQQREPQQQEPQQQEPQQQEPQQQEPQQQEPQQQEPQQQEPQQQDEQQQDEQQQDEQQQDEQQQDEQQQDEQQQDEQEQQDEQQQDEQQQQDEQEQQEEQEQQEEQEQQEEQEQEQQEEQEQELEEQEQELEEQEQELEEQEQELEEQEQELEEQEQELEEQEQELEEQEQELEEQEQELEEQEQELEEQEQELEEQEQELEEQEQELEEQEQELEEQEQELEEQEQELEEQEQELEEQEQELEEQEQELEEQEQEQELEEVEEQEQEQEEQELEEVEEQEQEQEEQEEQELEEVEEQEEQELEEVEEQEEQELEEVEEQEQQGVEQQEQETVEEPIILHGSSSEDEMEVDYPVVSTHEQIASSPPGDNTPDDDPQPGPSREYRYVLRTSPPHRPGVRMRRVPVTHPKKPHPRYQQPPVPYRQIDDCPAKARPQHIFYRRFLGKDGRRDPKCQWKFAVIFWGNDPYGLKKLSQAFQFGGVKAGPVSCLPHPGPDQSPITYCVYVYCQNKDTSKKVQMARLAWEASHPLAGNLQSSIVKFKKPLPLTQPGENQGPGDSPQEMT
# Chain of Cytochrome P450 2D6 (P10635 whole entry): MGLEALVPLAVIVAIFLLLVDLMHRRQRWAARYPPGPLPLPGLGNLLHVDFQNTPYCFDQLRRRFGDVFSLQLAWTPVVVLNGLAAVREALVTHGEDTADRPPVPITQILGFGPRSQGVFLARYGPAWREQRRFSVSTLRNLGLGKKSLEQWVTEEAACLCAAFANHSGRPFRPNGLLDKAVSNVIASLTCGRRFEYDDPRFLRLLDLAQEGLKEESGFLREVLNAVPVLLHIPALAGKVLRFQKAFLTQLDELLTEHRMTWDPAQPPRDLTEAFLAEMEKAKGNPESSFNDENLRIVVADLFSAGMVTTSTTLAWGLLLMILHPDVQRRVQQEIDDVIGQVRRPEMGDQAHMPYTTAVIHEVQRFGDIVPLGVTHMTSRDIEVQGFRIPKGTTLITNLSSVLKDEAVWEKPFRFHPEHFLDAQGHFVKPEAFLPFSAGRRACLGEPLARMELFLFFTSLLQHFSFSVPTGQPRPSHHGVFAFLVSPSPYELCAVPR
# Chain of Keap1/Nrf2 (Q16236 whole entry): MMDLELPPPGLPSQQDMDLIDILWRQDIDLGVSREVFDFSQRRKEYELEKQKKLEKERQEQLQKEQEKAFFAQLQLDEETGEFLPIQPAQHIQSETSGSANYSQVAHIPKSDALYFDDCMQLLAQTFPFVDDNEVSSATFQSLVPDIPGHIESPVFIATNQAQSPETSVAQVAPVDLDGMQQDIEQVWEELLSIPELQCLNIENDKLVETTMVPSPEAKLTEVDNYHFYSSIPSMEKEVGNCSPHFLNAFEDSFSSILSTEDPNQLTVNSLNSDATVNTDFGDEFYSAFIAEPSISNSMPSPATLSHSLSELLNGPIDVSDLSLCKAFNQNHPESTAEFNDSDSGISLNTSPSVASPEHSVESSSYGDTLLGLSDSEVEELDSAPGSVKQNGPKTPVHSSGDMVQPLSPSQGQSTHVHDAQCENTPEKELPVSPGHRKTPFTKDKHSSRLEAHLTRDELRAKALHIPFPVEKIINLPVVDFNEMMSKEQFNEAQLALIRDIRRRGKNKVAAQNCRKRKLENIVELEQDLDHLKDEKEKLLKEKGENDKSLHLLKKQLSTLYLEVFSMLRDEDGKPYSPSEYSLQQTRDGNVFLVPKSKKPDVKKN
# Chain of Keap1/Nrf2 (Q14145 whole entry): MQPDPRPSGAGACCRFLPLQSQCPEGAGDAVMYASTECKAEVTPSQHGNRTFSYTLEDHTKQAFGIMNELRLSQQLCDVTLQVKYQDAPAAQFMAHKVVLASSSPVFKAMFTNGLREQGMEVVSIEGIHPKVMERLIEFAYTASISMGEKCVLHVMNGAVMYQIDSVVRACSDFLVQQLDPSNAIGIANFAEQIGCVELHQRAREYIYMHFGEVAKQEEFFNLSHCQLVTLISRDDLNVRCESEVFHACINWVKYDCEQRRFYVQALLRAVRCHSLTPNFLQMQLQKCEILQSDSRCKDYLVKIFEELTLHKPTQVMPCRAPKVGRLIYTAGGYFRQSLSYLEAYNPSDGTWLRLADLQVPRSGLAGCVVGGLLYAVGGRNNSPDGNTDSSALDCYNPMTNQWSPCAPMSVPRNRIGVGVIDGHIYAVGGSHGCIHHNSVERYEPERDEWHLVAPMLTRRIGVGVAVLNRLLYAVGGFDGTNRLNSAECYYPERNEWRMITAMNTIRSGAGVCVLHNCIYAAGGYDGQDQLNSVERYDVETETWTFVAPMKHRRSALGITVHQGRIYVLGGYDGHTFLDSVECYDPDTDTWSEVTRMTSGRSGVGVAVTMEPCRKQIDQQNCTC
# Chain of Phospholipase A2 (P04054 whole entry): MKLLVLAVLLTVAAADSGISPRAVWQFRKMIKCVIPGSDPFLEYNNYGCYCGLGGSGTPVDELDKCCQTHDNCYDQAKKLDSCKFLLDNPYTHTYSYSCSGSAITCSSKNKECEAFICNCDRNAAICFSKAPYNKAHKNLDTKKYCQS
smiles,measurement,setting,value
COc1cccc2sc(NC(=O)c3ccc(C(=O)c4ccccc4)cc3)nc12,IC50,[1],> 66 µM (inactive)
COc1ccccc1/C=C/C(=O)OCCCN(C)C,EC50,[2],2.52 µM (active)
same,EC50,[3],2.52 µM (active)
same,EC50,[4],> 195 µM (not active)
CCCCCNC(=O)c1ccc2c(=O)n(CC3CCCO3)c(=O)[nH]c2c1 (stereo unspecified),IC50,Jurkat,> 80 µM (inactive)
same,IC50,[5],> 80 µM (inactive)
CCN(CC)C(=O)c1cn(CCOc2ccccc2)c2ccccc12,IC50,[6],> 100 µM (inactive)
same,IC50,[7],1.38 µM (active)
CN(C)CCNc1ccc2ncn3c4ccc(O)cc4c(=O)c1c23,EC50,[8],11.5 µM (inactive)
same,AC50,[9],89 µM (active)
same,IC50,[10],46.8 µM (active)
same,EC50,[11],> 91.1 µM (inactive)
same,AC50,ORF 73,6.38 µM (active)
same,EC50,HEK293 [12],> 6.62 µM (active)
same,AC50,HeLa,11.5 µM (active)
same,EC50,HEK293 [13],> 59.6 µM (inactive)
same,AC50,Keap1/Nrf2,3.79 µM (active)
same,CC50,[14],49.2 µM (active)
COc1ccc(CC2(CO)CCN(CC3=Cc4cc(Cl)ccc4OC3)CC2)cc1,EC50,HEK293 [15],5.44 µM (active)
same,IC50,[16],1.79 µM (active)
same,AC50,[17],7.74 µM (active)
same,IC50,HEK293 [18],3.77 µM (active)
same,EC50,[19],> 60 µM (inconclusive)
same,IC50,[20],1.28 µM (active)
same,IC50,HEK293 [21],8.64 µM (active)
same,AC50,INS1,3.28 µM (active)
same,AC50,[22],1.33 µM (active)
same,IC50,HEK293 [23],4.31 µM (active)
same,EC50,[24],1.68 µM (active)
same,AC50,[25],7.73 µM (active)
CCOc1ccc(C(=O)Nc2cnn(Cc3ccc(Cl)c(Cl)c3)c2)cc1,EC50,[26],> 53 µM (inactive)
same,IC50,Phospholipase A2,79.1 µM (inactive)
same,IC50,[27],> 47.1 µM (inactive)
same,AC50,Cytochrome P450 2D6,15.8 µM (inconclusive)
same,AC50,Cytochrome P450 3A4,22.4 µM (inconclusive)
same,IC50,Cysteine protease ATG4B,68.1 µM (inactive)
